Results on 24 molecules are retold here after patent publication US20230031406A1, “COMPOUNDS AND COMPOSITIONS FOR TREATING CONDITIONS ASSOCIATED WITH NLRP ACTIVITY” (Novartis AG, priority 2018, published 2023).

This assay concerns PMA-differentiated THP-1 cells. The assay can be described thus: IL-1β production in PMA-differentiated THP-1 cells stimulated with gramicidin (hTHP-1 assay containing 2% fetal bovine serum; Procedures 1 and 2). The assay is classed as cell-based, human. As to conditions: 2% fetal bovine serum. The method, boiled down:
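PMA-primed (20 ng/ml, 16-18 h) THP-1 cells in RPMI with 2% FBS, 50,000 cells/well, were preincubated 1 h with compound (0.0017-100 μM final, 0.37% DMSO), then stimulated 2 h with 5 μM gramicidin. Supernatant IL-1β measured by HTRF.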

[1] abbreviates: Homo sapiens, THP-1, Table B2, numeric bounds, read-out: hTHP-1 IC50.
The mark [2] stands for this setting: Table B4, class symbols, read-out: hTHP-1 IC50.
Setting [3] is: Table B1, class symbols, read-out: Average IC50 of compounds in hTHP-1 assay: hTHP-1 IC50.
Where [4] appears, read: Homo sapiens, THP-1, Table B2, class symbols, read-out: hTHP-1 IC50.
Setting [5] is: Homo sapiens, THP-1, Table B4, class symbols, read-out: hTHP-1 IC50.
Setting [6] is: Homo sapiens, THP-1, Table B1, numeric bounds, read-out: Average IC50 of compounds in hTHP-1 assay: hTHP-1 IC50.
[7] abbreviates: Table B2, class symbols, read-out: hTHP-1 IC50.

Like-named read-outs stand apart in the source and are kept apart here. Bounds are passed on as bounds.

With `CC(C)n1nc(S(N)(=O)=NC(=O)Nc2c3c(nc4c2CC[C@H]4C)CCC3)cc1CO` (single isomer, unassigned) [Example 644, (S) or (R)-5-(hydroxymethyl)-1-isopropyl-N′-(((R)-3-methyl-1,2,3,5,6,7-hexahydrodicyclopenta[b,e]pyridin-8-yl)carbamoyl)-1H-pyrazole-3-sulfonimidamide], the IC50 (Homo sapiens, THP-1, Table B3, hTHP-1 assay, numeric values, read-out: IC50) was greater than 30 µM.

`CC(C)n1cc(CO)c(S(N)(=O)=NC(=O)Nc2c3c(nc4c2CCC4(C)C)CCC3)n1` (single isomer, unassigned) [Compound 682a, (S) or (R)-N′-((3,3-dimethyl-1,2,3,5,6,7-hexahydrodicyclopenta [b,e]pyridin-8-yl)carbamoyl)-4-(hydroxymethyl)-1-isopropyl-1H-pyrazole-3-sulfonimidamide]: the IC50 under setting [1] was greater than 30 µM. As for `NS(=O)(=NC(=O)Nc1c2c(nc(C3CC3)c1C1CC1)CCC2)c1nn(C(F)F)cc1F` (single isomer, unassigned) [Example 764, (S) or (R)-N′-((2,3-dicyclopropyl-6,7-dihydro-5H-cyclopenta[b]pyridin-4-yl)carbamoyl)-1-(difluoromethyl)-4-fluoro-1H-pyrazole-3-sulfonimidamide], the IC50 under setting [2] was in the range of 5 to 30 µM.

Consider `CC(C)n1cc(Cl)c(S(N)(=O)=NC(=O)Nc2c3c(nc4c2CCC4)CCC3)n1` (single isomer, unassigned) [Compound 694a, (S) or (R)-4-Chloro-N′-((1,2,3,5,6,7-hexahydrodicyclopenta [b,e]pyridin-8-yl)carbamoyl)-1-isopropyl-1H-pyrazole-3-sulfonimidamide], for which the IC50 under setting [1] was greater than 30 µM. Regarding `CCC1CCc2c1nc1c(c2NC(=O)N=S(N)(=O)c2ccn(C(F)F)n2)CCC1` (single isomer, unassigned) [Compound 668d, (S, R) or (S, S) or (R, S) or (R, R)-1-(Difluoromethyl)-N′-((3-ethyl-1,2,3,5,6,7-hexahydrodicyclopenta [b,e]pyridin-8-yl)carbamoyl)-1H-pyrazole-3-sulfonimidamide], the IC50 (Table B2, numeric bounds, read-out: hTHP-1 IC50) is greater than 30 µM. With `Cc1c(C(F)(F)F)nc2c(c1NC(=O)N=S(N)(=O)c1cnc(C(C)(C)O)s1)CCC2C` (single isomer, unassigned) [Example 706, (R, R) or (R, S)-N′-((3,7-dimethyl-2-(trifluoromethyl)-6,7-dihydro-5H-cyclopenta[b]pyridin-4-yl)carbamoyl)-2-(2-hydroxypropan-2-yl)thiazole-5-sulfonimidamide], the IC50 (Table B3, hTHP-1 assay, class symbols, read-out: IC50) is 0.2 to 1 µM.

Consider `CC1CCc2c1nc1c(c2NC(=O)N=S(N)(=O)c2cnc(C(C)(C)O)s2)CCC1` (single isomer, unassigned) [Compound 162aa, (S,S) or (S,R)-2-(2-hydroxypropan-2-yl)-N′-((3-methyl-1,2,3,5,6,7-hexahydrodicyclo-penta[b,e]pyridin-8-yl)carbamoyl)thiazole-5-sulfonimidamide], for which the IC50 under setting [3] is 5 to 30 µM.

For the molecule `CC(C)(O)c1ccc(S(N)(=O)=NC(=O)Nc2c3c(nc4c2CCC4(C)C)CCC3)cn1` (stereo not drawn) [Compound 673, N′-((3,3-dimethyl-1,2,3,5,6,7-hexahydrodicyclopenta[b,e]pyridin-8-yl)carbamoyl)-6-(2-hydroxypropan-2-yl)pyridine-3-sulfonimidamide], the IC50 under setting [4] fell in the range of 5 to 30 µM. Regarding `CC1CCc2c1nc1c(c2NC(=O)N=S(N)(=O)c2ncc(C(C)(C)O)s2)CCC1` (single isomer, unassigned) [Compound 140ba, (S,S) or (S,R)-5-(2-hydroxypropan-2-yl)-N′-((3-methyl-1,2,3,5,6,7-hexa-hydrodicyclo-penta[b,e]pyridin-8-yl)carbamoyl)thiazole-2-sulfonimidamide], the IC50 under setting [3] was in the range of 5 to 30 µM. As to `Cc1c(C(=O)O)nc2c(c1NC(=O)N=S(N)(=O)c1cnc(C(C)(C)O)s1)CCC2` (stereo not drawn) [Compound 712], under setting [1], the IC50 was greater than 30 µM. For the molecule `CC(C)c1cc(C#N)nc(C(C)C)c1NC(=O)NS(=N)(=O)c1sc(C(C)(C)O)nc1CO` (stereo not drawn) [Compound 696, N-((6-cyano-2,4-diisopropylpyridin-3-yl)carbamoyl)-4-(hydroxymethyl)-2-(2-hydroxypropan-2-yl)thiazole-5-sulfonimidamide], under setting [4], the IC50 lay in the range of 5 to 30 µM. As for `CC(C)(O)c1cc(Br)c(S(N)(=O)=NC(=O)Nc2c3c(nc4c2CCC4)CCC3)s1` (single isomer, unassigned) [Compound 690a, (S) or (R)-3-Bromo-N′-((1,2,3,5,6,7-hexahydrodicyclopenta [b,e]pyridin-8-yl)carbamoyl)-5-(2-hydroxypropan-2-yl)thiophene-2-sulfonamidamide], under setting [1], the IC50 was greater than 30 µM. For `Cc1c(C2(F)CC2)nc2c(c1NC(=O)N=[S@@](N)(=O)c1cnc(C(C)(C)O)s1)CCC2` [Example 579, (R)-N′-((2-(1-fluorocyclopropyl)-3-methyl-6,7-dihydro-5H-cyclopenta[b]pyridin-4-yl)carbamoyl)-2-(2-hydroxypropan-2-yl)thiazole-5-sulfonimidamide], for the setting “Homo sapiens, THP-1, Table B3, hTHP-1 assay, class symbols, read-out: IC50”, the IC50 was in the range of 1 to 5 µM. Regarding `CC1CCc2c1nc1c(c2NC(=O)N=S(N)(=O)c2cc(C(C)(C)O)cs2)CCC1C` [Compound 131aab, (R,R,S) and (R,S,R)-N′-((3,5-dimethyl-1,2,3,5,6,7-hexa-hydrodicyclo-penta[b,e]pyridin-8-yl)carbamoyl)-4-(2-hydroxypropan-2-yl)thiophene-2-sulfonimidamide], under setting [3], the IC50 fell in the range of 0.2 to 1 µM. Take `CC(C)n1cc(F)c(S(N)(=O)=NC(=O)Nc2c3c(nc4c2CC[C@H]4C)CCC3)n1` (stereo partly drawn) [Example 739, 4-Fluoro-1-isopropyl-N′-(((R)-3-methyl-1,2,3,5,6,7-hexahydrodicyclopenta[b,e]pyridin-8-yl)carbamoyl)-1H-pyrazole-3-sulfonimidamide]: the IC50 under setting [5] lay within 0.008 to 0.04 µM. With `CC1CCc2c1nc1c(c2NC(=O)N=S(N)(=O)c2ncc(C(C)(C)O)s2)CCC1` (single isomer, unassigned) [Compound 140bb, (S,R) or (S,S)-5-(2-hydroxypropan-2-yl)-N′-((3-methyl-1,2,3,5,6,7-hexa-hydrodicyclo-penta[b,e]pyridin-8-yl)carbamoyl)thiazole-2-sulfonimidamide], the IC50 under setting [6] is greater than 30 µM. For the molecule `Cc1c(C(F)(F)F)nc(C(F)(F)F)c(C)c1NC(=O)N=S(N)(=O)c1cc(C(C)(C)O)cs1` (single isomer, unassigned) [Example 755, (R) or (S)-N′-((3,5-dimethyl-2,6-bis(trifluoromethyl)pyridin-4-yl)carbamoyl)-4-(2-hydroxypropan-2-yl)thiophene-2-sulfonimidamide], the IC50 under setting [2] was in the range of 0.2 to 1 µM. In the case of `CCc1nc2c(c(NC(=O)N=S(N)(=O)c3cnc(C(C)(C)O)s3)c1C1CC1)CCC2` (single isomer, unassigned) [Compound 630a, (S) or (R)-N′-((3-cyclopropyl-2-ethyl-6,7-dihydro-5H-cyclopenta[b]pyridin-4-yl)carbamoyl)-2-(2-hydroxypropan-2-yl)thiazole-5-sulfonimidamide], under setting [7], the IC50 fell in the range of 5 to 30 µM. As for `CC1CCc2c1nc1c(c2NC(=O)N=S(N)(=O)c2sc(C(C)(C)O)nc2CO)CCC1` (single isomer, unassigned) [Compound 168ba, (R,S) or (R,R)-4-(hydroxymethyl)-2-(2-hydroxypropan-2-yl)-N′-((3-methyl-1,2,3,5,6,7-hexahydrodicyclo-penta[b,e]pyridin-8-yl)carbamoyl)thiazole-5-sulfonimidamide], the IC50 under setting [3] lay in the range of 0.2 to 1 µM.

Take `CCc1c(C2CC2)nc2c(c1NC(=O)N=S(N)(=O)c1cnc(C(C)(C)O)s1)CCC2` (single isomer, unassigned) [Compound 675a, (R) or (S)-N′-((2-cyclopropyl-3-ethyl-6,7-dihydro-5H-cyclopenta[b]pyridin-4-yl)carbamoyl)-2-(2-hydroxypropan-2-yl)thiazole-5-sulfonimidamide]: the IC50 under setting [7] lay in the range of 1 to 5 µM.

Regarding `NS(=O)(=NC(=O)Nc1c2c(nc(C(F)(F)F)c1-c1ccccc1)CCC2)c1nn(C(F)F)cc1F` (stereo not drawn) [Example 740, 1-(Difluoromethyl)-4-fluoro-N′-((3-phenyl-2-(trifluoromethyl)-6,7-dihydro-5H-cyclopenta[b]pyridin-4-yl)carbamoyl)-1H-pyrazole-3-sulfonimidamide], the IC50 under setting [5] fell in the range of 0.04 to 0.2 µM. Regarding `CC(C)(O)c1ncc(S(N)(=O)=NC(=O)Nc2cc(-c3ccccc3)nc3c2CCC3)s1` (single isomer, unassigned) [Compound 142a, (R) or (S)-2-(2-hydroxy-propan-2-yl)-N′-((2-phenyl-6,7-dihydro-5H-cyclopenta[b]pyridin-4-yl)carbamoyl)thiazole-5-sulfonimidamide], the IC50 under setting [6] is greater than 30 µM. On to `CC(C)c1ncc(F)c(C(C)C)c1NC(=O)N=S(N)(=O)c1cc(C(C)(C)O)cs1` (single isomer, unassigned) [Compound 148b, (S) or (R)-N′-((5-fluoro-2,4-diisopropylpyridin-3-yl)carbamoyl)-4-(2-hydroxypropan-2-yl)thiophene-2-sulfonimidamide], for which the IC50 under setting [3] fell in the range of 1 to 5 µM. Regarding `CC(C)c1ncc(F)c(C(C)C)c1NC(=O)N=S(N)(=O)c1ccc(CN(C)C)cc1` (single isomer, unassigned) [Compound 132b, (S) or (R)-4-((dimethyl-amino)methyl)-N′-((5-fluoro-2,4-diisopropylpyridin-3-yl)carbamoyl)benzene-sulfonimidamide], under setting [6], the IC50 is greater than 30 µM.
